Source: PubChem BioAssay AID651806 (Broad Institute, 2012)
Active and inactive are the calls of the source.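 How the source made its calls: active means AC50 no higher than twice the top valid tested dose, with signal falling as dose rises; inconclusive means flat fit with partial inhibition, or a poor-quality fit; inactive means the rest, plus effects in the rising direction.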

What follows are compounds tested against Kelch-like ECH-associated protein 1 (Homo sapiens) (UniProt Q14145) (assay: Keap1 Kelch-Nrf2 peptide binding inhibitors, dose response, biochemical, fluorescence polarization, dry powder, set 3 (AID 651806)). Details: Keap1 Kelch/FITC-Nrf2 peptide fluorescence polarization.
Chain of Kelch-like ECH-associated protein 1 (Homo sapiens) (Q14145 whole entry, looked up): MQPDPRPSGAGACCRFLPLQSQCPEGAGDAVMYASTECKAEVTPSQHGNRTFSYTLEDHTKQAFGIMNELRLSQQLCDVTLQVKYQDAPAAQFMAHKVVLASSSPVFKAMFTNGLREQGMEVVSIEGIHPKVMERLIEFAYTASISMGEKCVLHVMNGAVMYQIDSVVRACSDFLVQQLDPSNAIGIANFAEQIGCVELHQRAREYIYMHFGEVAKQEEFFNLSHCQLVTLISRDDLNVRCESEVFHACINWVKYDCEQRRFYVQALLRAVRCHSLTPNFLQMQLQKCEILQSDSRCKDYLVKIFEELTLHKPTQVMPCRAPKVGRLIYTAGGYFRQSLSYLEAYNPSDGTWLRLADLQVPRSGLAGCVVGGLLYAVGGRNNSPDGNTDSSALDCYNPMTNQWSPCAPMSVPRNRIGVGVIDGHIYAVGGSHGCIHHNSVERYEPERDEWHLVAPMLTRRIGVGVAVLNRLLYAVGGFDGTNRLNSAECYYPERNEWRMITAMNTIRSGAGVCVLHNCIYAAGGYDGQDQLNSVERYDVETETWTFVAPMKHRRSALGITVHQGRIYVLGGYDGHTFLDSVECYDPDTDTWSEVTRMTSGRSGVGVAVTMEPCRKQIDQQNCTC

Row | AC50 | Compound
1 | > 100 µM (inactive) | O=C(O)C1CCCCC1C(=O)N1CCc2ccccc2C1CN1C(=O)c2ccccc2S1(=O)=O (stereo not given)
2 | > 100 µM (inactive) | O=C(O)C1CCCCC1C(=O)N1CCc2ccccc2C1CN1C(=O)Cc2ccccc2C1=O (stereo not given)
3 | > 100 µM (inactive) | Cc1ccc(S(=O)(=O)NC(=O)[C@@H]2c3ccccc3CCN2C(=O)[C@@H]2CCCC[C@@H]2C(=O)O)cc1

Further lines, the compound ahead of its results:

Row | Compound | AC50
4 | Cc1cc(C)c(S(=O)(=O)Nc2cc(C(C(=O)OC(C)C)C(=O)C(F)(F)F)c(O)c3ccccc23)c(C)c1 (stereo not given) | 14.7 µM
5 | CC(=O)Nc1cc(NS(=O)(=O)c2c(C)cc(C)cc2C)c2ccccc2c1O | > 100 µM (inactive)
6 | O=C(O)[C@H]1CCCC[C@H]1C(=O)N1CCC2=C(CCCC2)C1CN1C(=O)c2ccccc2C1=O (stereo not given in full) | > 100 µM (inactive)
7 | CC(C)OC(=O)C(C(=O)C(F)(F)F)c1cc(NS(=O)(=O)c2ccccc2)c2ccccc2c1O (stereo not given) | > 100 µM (inactive)
8 | Cc1ccccc1S(=O)(=O)Nc1cc(C(C(=O)OC(C)C)C(=O)C(F)(F)F)c(O)c2ccccc12 (stereo not given) | > 100 µM (inactive)
9 | Cc1ccc(S(=O)(=O)Nc2cc(C(C(=O)OC(C)C)C(=O)C(F)(F)F)c(O)c3ccccc23)cc1 (stereo not given) | > 100 µM (inactive)

Same assay, conditions: Keap1 Kelch/FITC-Nrf2 peptide fluorescence polarization; at 12 µM (top of the series)

Row | activity change, negative = inhibition | Compound
10 | inactive | O=C1c2ccccc2C(=O)N1CC1c2ccccc2CCN1C(=O)Cc1ccccc1 (stereo not given)

Same assay, conditions: Keap1 Kelch/FITC-Nrf2 peptide fluorescence polarization; at 50 µM (top of the series)

Row | activity change, negative = inhibition | Compound
11 | inactive | NC(=O)c1ccccc1C(=O)NC[C@@H]1c2ccccc2CCN1C(=O)[C@@H]1CCCC[C@@H]1C(=O)O
12 | inactive | O=C(O)[C@H]1CCCC[C@H]1C(=O)N1CCc2ccccc2C1 (racemic)
13 | inactive | Cc1ccc(S(=O)(=O)NC[C@@H]2c3ccccc3CCN2C(=O)[C@@H]2CCCC[C@@H]2C(=O)O)c(C)c1
14 | inactive | O=C(Cc1ccccc1)NC[C@@H]1c2ccccc2CCN1C(=O)[C@@H]1CCCC[C@@H]1C(=O)O
15 | inactive | O=C(O)C1CCCCC1C(=O)N1CCc2ccccc2[C@H]1C(=O)NCCc1ccccc1 (stereo not given in full)
16 | inactive | O=C(O)[C@H]1CCCC[C@H]1C(=O)N1CCc2ccccc2C1CCN1C(=O)c2ccccc2C1=O (stereo not given in full)
17 | inactive | O=C(NC[C@@H]1c2ccccc2CCN1C(=O)[C@@H]1CCCC[C@@H]1C(=O)O)c1ccccc1
18 | inactive | O=C(O)[C@H]1CCCC[C@H]1C(=O)N1CCc2ccccc2[C@H]1CNc1nc(Cl)nc2ccccc12
19 | inactive | O=C(NC[C@@H]1c2ccccc2CCN1C(=O)[C@@H]1CCCC[C@@H]1C(=O)O)c1ccc(CCl)cc1
20 | inactive | Cc1ccc(S(=O)(=O)NC(=O)[C@@H]2c3ccccc3CCN2C(=O)[C@@H]2CCCC[C@@H]2C(=O)O)cc1
21 | inactive | O=C(O)[C@H]1CCCC[C@H]1C(=O)NC(CN1C(=O)c2ccccc2C1=O)c1ccccc1 (stereo not given in full)
22 | inactive | O=C(O)C1CCCCC1C(=O)Nc1ccccc1CN1C(=O)c2ccccc2C1=O (stereo not given)
23 | inactive | C=CC(=O)NC[C@@H]1c2ccccc2CCN1C(=O)[C@@H]1CCCC[C@@H]1C(=O)O
24 | inactive | C[C@@H](NC(=O)C1CCCC[C@H]1C(=O)O)c1ccccc1 (mixture of isomers)
25 | inactive | O=C(O)[C@H]1CCCC[C@H]1C(=O)N1CCc2ccccc2[C@H]1CNS(=O)(=O)c1ccccc1
26 | inactive | C[C@H](NC(=O)C1CCCC[C@H]1C(=O)O)c1ccccc1 (mixture of isomers)
27 | inactive | O=C(O)C1CCCCC1C(=O)N1CCCCC1CN1C(=O)c2ccccc2C1=O (stereo not given)
28 | inactive | O=C(O)C1CCCCC1C(=O)NCC1c2ccccc2CCN1C(=O)Cc1ccccc1 (stereo not given)
29 | inactive | O=C(O)c1ccccc1C(=O)NC[C@@H]1c2ccccc2CCN1C(=O)[C@@H]1CCCC[C@@H]1C(=O)O
30 | inactive | O=C(NC[C@@H]1c2ccccc2CCN1C(=O)[C@@H]1CCCC[C@@H]1C(=O)O)c1ccccc1CO
31 | inactive | O=C(O)C1CCCCC1C(=O)N1CCc2ccccc2C1c1ccccc1 (stereo not given)
32 | inactive | COc1ccccc1CCNC(=O)[C@@H]1c2ccccc2CCN1C(=O)C1CCCCC1C(=O)O (stereo not given in full)

Further lines, the compound ahead of its results:

Row | Compound | activity change, negative = inhibition
33 | COC(=O)CNc1nc(NS(=O)(=O)c2c(C)cc(C)cc2C)c2ccccc2n1 | inactive
34 | CCOC(=O)Cc1nc(NS(=O)(=O)c2c(C)cc(C)cc2C)c2ccccc2n1 | inactive
35 | Cc1ccc(S(=O)(=O)NNc2nc(C(C(=O)OC(C)C)C(=O)C(F)(F)F)nc3ccccc23)cc1 (stereo not given) | inactive
36 | O=C(NCCO)c1ccccc1C(=O)NC[C@@H]1c2ccccc2CCN1C(=O)C1CCCCC1C(=O)O (stereo not given in full) | inactive
37 | O=C(NC[C@@H]1c2ccccc2CCN1C(=O)[C@@H]1CCCC[C@@H]1C(=O)O)c1ccc(CN2CCOCC2)cc1 | inactive
38 | O=C(O)[C@H]1CCCC[C@H]1C(=O)N1CCC2=C(CCCC2)C1CN1C(=O)c2ccccc2C1=O (stereo not given in full) | inactive
39 | CCOC(=O)C(C(=O)OCC)c1cc(CN2C(=O)c3ccccc3C2=O)c2ccccc2n1 | inactive
40 | CCOC(=O)C(C(=O)OCC)c1cc(CNS(=O)(=O)c2ccc(C)cc2C)c2ccccc2n1 | inactive
41 | NC(=O)[C@H]1CCCC[C@H]1C(=O)N1CCc2ccccc2[C@H]1CN1C(=O)c2ccccc2C1=O | inactive
42 | O=C(O)CCC(=O)N1CCc2ccccc2C1CN1C(=O)c2ccccc2C1=O (stereo not given) | inactive
43 | Cc1cc(C)c(S(=O)(=O)Nc2nc(N(C)C)nc3ccccc23)c(C)c1 | inactive
44 | O=C(O)C1CCCCC1C(=O)N1CCc2ccccc2C1CN1C(=O)[C@H]2CCCC[C@H]2C1=O (stereo not given in full) | inactive
45 | O=C1c2ccccc2C(=O)N1C[C@@H]1c2ccccc2CCN1C(=O)C1CCCCC1 | inactive
46 | O=C(NCCc1ccccc1)c1ccccc1C(=O)NC[C@@H]1c2ccccc2CCN1C(=O)C1CCCCC1C(=O)O (stereo not given in full) | inactive
47 | O=C(O)c1ccccc1C(=O)N1CCc2ccccc2C1CN1C(=O)c2ccccc2C1=O (stereo not given) | inactive
48 | O=C(O)CCCC(=O)N1CCc2ccccc2C1CN1C(=O)c2ccccc2C1=O (stereo not given) | inactive
49 | O=C1c2ccccc2C(=O)N1C[C@@H]1c2ccccc2CCN1C(=O)OCc1ccccc1 | inactive
50 | Cc1ccc(S(=O)(=O)NNc2nc(N3CC(O)CC3C(=O)O)nc3ccccc23)cc1 (stereo not given) | inactive
51 | Cc1ccc(S(=O)(=O)NNc2nc(NCC(N)=O)nc3ccccc23)cc1 | inactive
52 | O=C1c2ccccc2C(=O)N1CC1=NCCc2ccccc21 | inactive
53 | Cc1cc(C)c(S(=O)(=O)Nc2ncnc3ccccc23)c(C)c1 | inactive
54 | O=C(Oc1cc(CN2C(=O)c3ccccc3C2=O)c2ccccc2[n+]1[O-])c1cccc(Cl)c1 | inactive

Row | Compound | activity change, negative = inhibition
55 | COC(=O)C1CCCCC1C(=O)N1CCc2ccccc2C1CN1C(=O)c2ccccc2C1=O (stereo not given) | inactive
56 | O=C(NC[C@@H]1c2ccccc2CCN1C(=O)[C@@H]1CCCC[C@@H]1C(=O)O)OCC1c2ccccc2-c2ccccc21 | inactive
57 | O=C(O)C1CCCCC1C(=O)N1CCc2ccccc2[C@H]1C(=O)NC12CC3CC(CC(C3)C1)C2 (stereo not given in full) | inactive
58 | COC(=O)[C@@H]1CCCC[C@@H]1C(=O)N1CCc2ccccc2[C@@H]1CN1C(=O)c2ccccc2C1=O | inactive
59 | COc1ccc(CCN=C2C=C(NS(=O)(=O)c3c(C)cc(C)cc3C)c3ccccc3C2=O)cc1 | inactive
60 | Cc1cc(C)c(S(=O)(=O)Nc2nc(C(C(=O)OC(C)C)C(=O)C(F)(F)F)nc3ccccc23)c(C)c1 (stereo not given) | inactive
61 | COC(=O)[C@@H]1CCCC[C@@H]1C(=O)N1CCc2ccccc2[C@H]1CN1C(=O)c2ccccc2C1=O | inactive
62 | O=C(O)[C@H]1C2C=CC(C2)[C@H]1C(=O)N1CCc2ccccc2C1CN1C(=O)c2ccccc2C1=O (stereo not given in full) | inactive
63 | O=C(NCCCN1CCOCC1)c1ccccc1C(=O)NC[C@@H]1c2ccccc2CCN1C(=O)C1CCCCC1C(=O)O (stereo not given in full) | inactive
64 | O=C(O)CC(=O)N1CCc2ccccc2C1CN1C(=O)c2ccccc2C1=O (stereo not given) | inactive
65 | O=C(O)/C=C\C(=O)N1CCc2ccccc2C1CN1C(=O)c2ccccc2C1=O (stereo not given) | inactive
66 | CCOC(=O)C(C(=O)OCC)c1nc(NS(=O)(=O)c2c(C)cc(C)cc2C)c2ccccc2n1 | inactive
67 | COC(=O)[C@H]1CCCC[C@H]1C(=O)N1CCc2ccccc2[C@H]1CN1C(=O)c2ccccc2C1=O | inactive
68 | Cc1cc(C)c(S(=O)(=O)Nc2nc(NCCO)nc3ccccc23)c(C)c1 | inactive
69 | CC(C)CNc1nc(NS(=O)(=O)c2ccccc2)c2ccccc2n1 | inactive
70 | O=S(=O)(Nc1nc(NCC2CCCCC2)nc2ccccc12)c1ccccc1 | inactive
71 | Cc1cc(C)c(S(=O)(=O)Nc2cc(C(C(=O)OCc3ccccc3)C(=O)OCc3ccccc3)c(O)c3ccccc23)c(C)c1 | inactive
72 | O=C(O)[C@@H]1CCCN1C(=O)N1CCc2ccccc2[C@H]1CN1C(=O)c2ccccc2C1=O | inactive
73 | Cc1ccc(S(=O)(=O)NC2=CC(=N[C@@H](C)C(=O)OC(C)(C)C)C(=O)c3ccccc32)c(C)c1 | inactive
74 | O=C1c2ccccc2C(=O)N1C[C@H]1NCCc2ccccc21 | inactive
75 | COC(=O)C(C(=O)OC)c1cc(NS(=O)(=O)c2c(C)cc(C)cc2C)c2ccccc2c1O | inactive
